From patent publication EP4725956A1, “MODIFIED POLYPEPTIDE AND USE THEREOF IN FIELD OF ANALGESIA” (Nanjing Anji Biotechnology Co., Ltd., priority 2023, dated 2024)
Positions of bridges follow the written chain, without caps; N, C: chain ends. Non-standard residues stand in square brackets, D forms with d. Residues, ends and D or L forms follow the SMILES beside them. Hyp = O=C(O)[C@@H]1C[C@@H](O)CN1; Nle = CCCC[C@H](N)C(=O)O; Orn = NCCC[C@H](N)C(=O)O

Key:
[1] = tested on: mouse diabetic neuropathic pain model; assay: Mouse diabetic neuropathic pain model (Example 10); format: in vivo; details: 2 mg/kg s.c. (AJ003; AJ003-36 medium dose)
Procedure: Except for the control group, the remaining male C57 mice (Hangzhou Ziyuan Experimental Animal Technology Co., Ltd.) were continuously fed a high-sugar, high-fat diet for approximately ten weeks. For the model group, mice were fasted overnight, and streptozotocin (STZ) (Sann Chemical Technology (Shanghai) Co., Ltd.) was dissolved in sodium citrate-citric acid buffer solution and intraperitoneally injected at a dose of 70 mg/kg. About two weeks after STZ injection, the mechanical pain threshold of mice was measured. Mice were placed on a perforated wire mesh for adaptation, and the plantar surface of the right hind paw was vertically stimulated with a blunt needle. Pain threshold data were collected using a biosignal acquisition system. Each mouse was measured three times, and the average value was calculated. Mice were then randomly assigned to groups based on their pain thresholds for drug administration.
Day 1 of dosing: Drug administration was performed according to Table 9. Mechanical pain thresholds of the plantar surface were measured at 0 h, 2 h, 4 h, 6 h, and 8 h after administration.

[2] = tested on: rat paclitaxel-induced chronic chemotherapy pain model; assay: Rat paclitaxel chemotherapy pain model, same dose (Example 5); format: in vivo; details: for analgesic activity compared with the model group (mechanical pain threshold): four rounds of treatment
Procedure: Male SPF (Specific Pathogen Free) SD rats weighing 180-200 g (Shanghai Institute of Planned Parenthood Research, Experimental Animal Department) were used. On the day of model induction, rats were weighed, and baseline mechanical pain thresholds were measured. Animals with large differences in body weight or pain threshold were excluded, and the remaining rats were subjected to the experimental protocol. Paclitaxel powder was dissolved in olive oil to 1 mg/mL. Each rat received an intraperitoneal injection of 2 mg/kg per dose. Four injections were administered on days 1, 3, 5, and 7. Rats in the negative control or vehicle control group received injections of the solvent used to dissolve paclitaxel. […] The blank group in Table 4 represents rats without pain modeling, and the model group represents rats with pain modeling but no drug treatment. On days 1, 3, 5, and 12, drugs were administered at fixed times. On days 1, 3, and 5, mechanical pain thresholds of the right hind paw at the corresponding time were measured at 1 h, 2.5 h, 4 h, and 5.5 h after dosing using a blunt probe. On day 12, mechanical pain thresholds were measured at 4 h and 7 h after dosing. […] AJ003-36 and AJ003-40 were thus identified as candidate molecules for further study. Paclitaxel is a widely used small-molecule chemotherapy drug that, while effective against tumors, can induce neuropathic pain in many cancer patients due to neurotoxicity. The chronic chemotherapy pain model induced in male SD rats via multiple low-dose intraperitoneal injections of paclitaxel simulates clinical chemotherapy-induced neuropathic pain. Using this model, the analgesic effects of five modified peptides, the parent peptide AJ003, and the positive control pregabalin were evaluated. […] Table 4 Dosing Scheme for Screening Analgesic Activity of Selected Modified Peptides at the Same Dose in the Paclitaxel Chemotherapy Pain Model

[3] = tested on: rat paclitaxel-induced chronic chemotherapy pain model; assay: Rat paclitaxel chemotherapy pain model, different doses (Example 6); format: in vivo; details: for analgesic activity compared with the model group (mechanical pain threshold): 1 mg/kg s.c., five rounds of treatment
Procedure: Male SPF (Specific Pathogen Free) SD rats weighing 180-200 g (Shanghai Institute of Planned Parenthood Research, Experimental Animal Department) were purchased and allowed to acclimate for approximately one week. On the day of model induction, rats were weighed, and baseline mechanical pain thresholds were measured. Animals with large differences in body weight or pain threshold were excluded, and the remaining rats were subjected to the experimental protocol. Paclitaxel powder was dissolved in olive oil to 1 mg/mL. Each rat received an intraperitoneal injection of 2 mg/kg per dose. Four injections were administered on days 1, 3, 5, and 7. Rats in the negative control or vehicle control group received injections of the solvent used to dissolve paclitaxel. […] Starting from day 15 after model induction, drugs were administered daily for consecutive days. On days 1, 4, 7, 12, and 14 of treatment, mechanical pain thresholds of the right hind paw at the corresponding time were measured at 2 h, 4 h, 6 h, and 8 h after dosing using a blunt probe. […]. […] Table 5 Dosing Scheme for Screening Analgesic Activity of Selected Modified Peptides at Different Doses in the Paclitaxel Chemotherapy Pain Model

[4] = biological target: α7 nAChR (Homo sapiens, UniProt P36544); assay: BLI (biolayer interferometry) affinity of peptides to α7 nAChR; format: binding; design: inferred from the 'similar' procedure on NTA sensors; details: NTA sensor, α7 nAChR 20 µg/mL, peptide 1.372-1000 nM in PBS
In short: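 Target protein immobilised on NTA biosensors from PBS at 5 µg/mL (α9) or 20 µg/mL (α7). Peptides run in PBS as threefold series from 1000 nM to 1.372 nM with a PBS blank, 5-minute association and 5-minute dissociation; KD from fitted ka and kd.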

Structure (SMILES)	analgesic activity compared with the model group (mechanical pain threshold) ([1]; Day 1 of dosing, 2 h and 4 h)	analgesic activity compared with the model group (mechanical pain threshold) ([1]; Day 1 of dosing, 6 h and 8 h)	analgesic activity compared with the model group (mechanical pain threshold) ([1]; Day 4 of dosing, 2 h and 4 h)	analgesic activity compared with the model group (mechanical pain threshold) ([1]; Day 4 of dosing, 6 h and 8 h)	analgesic activity compared with the model group (mechanical pain threshold) ([1]; Day 8 of dosing, 2 h and 4 h)	analgesic activity compared with the model group (mechanical pain threshold) ([1]; Day 8 of dosing, 6 h and 8 h)	analgesic activity compared with the model group (mechanical pain threshold) ([1]; Day 14 of dosing, 2 h and 4 h)	analgesic activity compared with the model group (mechanical pain threshold) ([1]; Day 14 of dosing, 6 h and 8 h)	analgesic activity compared with the model group (mechanical pain threshold) ([2]; 1 mg/kg s.c., beyond 4 h after dosing)	analgesic activity compared with the model group (mechanical pain threshold) ([2]; 1 mg/kg s.c., within 4 h after dosing)	analgesic activity compared with the model group (mechanical pain threshold) ([3]; beyond 4 h after dosing)	analgesic activity compared with the model group (mechanical pain threshold) ([3]; within 4 h after dosing)	Kd [4] [µM]	ranking among the five candidate modified peptides ([2]; 1 mg/kg s.c.)	analgesic activity (mechanical pain threshold) ([2]; 1 mg/kg s.c., day 12, 7 h after dosing)	analgesic efficacy compared with the positive control pregabalin ([2]; peptide 1 mg/kg s.c. vs pregabalin 30 mg/kg oral gavage, overall)	analgesic activity compared with the positive control pregabalin ([3]; high dose 1.5 mg/kg s.c. vs pregabalin 30 mg/kg oral gavage)	analgesic effect compared with the model group (mechanical pain threshold) ([3]; high dose 1.5 mg/kg s.c., 8 h after dosing)	analgesic activity compared with the parent peptide AJ003 ([3]; low dose 0.5 mg/kg s.c. vs AJ003 1 mg/kg s.c.)
CC(C)C[C@H](NC(=O)[C@@H](NC(=O)[C@H]1CSSC[C@H](NC(=O)[C@H](CO)NC(=O)CN)C(=O)N[C@@H](CO)C(=O)N[C@@H]([C@@H](C)O)C(=O)N2CCC[C@H]2C(=O)N2CCC[C@H]2C(=O)N[C@@H](CO)C(=O)N1)C(C)C)C(=O)N[C@@H](Cc1ccc(O)cc1)C(=O)N[C@@H](CO)C(=O)O [AJ003, GSCSTPPS-(D-Cys)-VLYS (disulfide bond between positions 3 and 9)] (H-GSCSTPPS[dC]VLYS-OH; disulfide 3-9)	significant analgesic activity	did not show significant differences	significant analgesic activity	no significant difference	significant analgesic activity	no significant difference	significant analgesic activity	did not show significant differences	no significant analgesic effect	significant analgesic activity	no significant effect	significant analgesic activity	0.223						
CCCC[C@H](NC(=O)[C@@H](NC(=O)[C@H]1CSSC[C@H](NC(=O)[C@H](CO)NC(=O)CN)C(=O)N[C@@H](CO)C(=O)N[C@H]([C@H](C)O)C(=O)N2C[C@H](O)C[C@H]2C(=O)N2C[C@H](O)C[C@H]2C(=O)N[C@@H](CO)C(=O)N1)C(C)C)C(=O)N[C@@H](Cc1c[nH]c2ccccc12)C(=O)N[C@@H](CCCN)C(N)=O [AJ003-40, GSCS-(D-Thr)-Hyp-Hyp-S-(D-Cys)-V-Nle-W-Orn-NH2 (3,9 disulfide bond)] (H-GSCS[dT][Hyp][Hyp]S[dC]V[Nle]W[Orn]-NH2; disulfide 3-9)													0.0465	top three analgesic candidates	prolonged analgesic activity lasting up to 7 h	comparable in analgesic efficacy to pregabalin	slightly superior to the positive control pregabalin	remained significant	comparable to that of AJ003 at 1 mg/kg
